Results: the NIST ThermoML archive (doi:10.1016/j.jct.2017.03.004)

How the values were obtained:
[1] = for viscosity / mass density: 101 kPa, Liquid; for viscosity: Falling or rolling sphere viscometry; for mass density: Vibrating tube method
[2] = activity coefficient (dimensionless); of the first substance listed, at infinite dilution; xn = mol fraction of the nth substance listed; conditions: 101.33 kPa, Liquid, Chromatography, x1 = 0

N#C[N-]C#N.OCCC[n+]1ccccc1 [N-(3-hydroxypropyl)pyridinium dicyanamide]
[1]
Conditions | mass density [kg/m3] | viscosity [mPa·s]
298.15 K | 1171.01 | 115
303.15 K | 1167.78 | –
308.15 K | 1164.58 | 70.8
313.15 K | 1161.4 | –
318.15 K | 1158.23 | 47.1
323.15 K | 1155.09 | –
328.15 K | 1151.97 | 32.9
333.15 K | 1148.86 | –
338.15 K | 1145.77 | 23.4
343.15 K | 1142.69 | –
348.15 K | 1139.63 | 17.8
353.15 K | 1136.59 | –
358.15 K | 1133.57 | 14
363.15 K | 1130.58 | –
368.15 K | 1127.62 | –

Conditions | Glass transition temperature [°C]
[1], Glass, DSC | -81

CCC[N+](=O)[O-] [1-nitropropane] + N#C[N-]C#N.OCCC[n+]1ccccc1
[2]
Conditions | activity coefficient
318.15 K | 2.96
328.15 K | 3.08
338.15 K | 3.18
348.15 K | 3.28
358.15 K | 3.37
368.15 K | 3.47

C=CCCCCC [1-heptene] + N#C[N-]C#N.OCCC[n+]1ccccc1
[2]
Conditions | activity coefficient
298.15 K | 223
308.15 K | 211
318.15 K | 200
328.15 K | 190
338.15 K | 182
348.15 K | 174
358.15 K | 167

CO [methanol] + N#C[N-]C#N.OCCC[n+]1ccccc1
[2]
Conditions | activity coefficient
318.15 K | 0.682
328.15 K | 0.692
338.15 K | 0.703
348.15 K | 0.713
358.15 K | 0.725
368.15 K | 0.733

C1CCCCCCC1 [cyclooctane] + N#C[N-]C#N.OCCC[n+]1ccccc1
[2]
Conditions | activity coefficient
298.15 K | 231
308.15 K | 215
318.15 K | 201
328.15 K | 188
338.15 K | 178
348.15 K | 168
358.15 K | 159

CCCc1ccccc1 [propylbenzene] + N#C[N-]C#N.OCCC[n+]1ccccc1
[2]
Conditions | activity coefficient
318.15 K | 30.5
328.15 K | 30.8
338.15 K | 31.1
348.15 K | 31.3
358.15 K | 31.6
368.15 K | 31.8

C1CCOC1 [tetrahydrofuran] + N#C[N-]C#N.OCCC[n+]1ccccc1
[2]
Conditions | activity coefficient
318.15 K | 3.1
328.15 K | 3.25
338.15 K | 3.38
348.15 K | 3.53
358.15 K | 3.66
368.15 K | 3.79

C=C(C)c1ccccc1 [(1-methylethenyl)benzene] + N#C[N-]C#N.OCCC[n+]1ccccc1
[2]
Conditions | activity coefficient
318.15 K | 11.3
328.15 K | 12
338.15 K | 12.7
348.15 K | 13.3
358.15 K | 14
368.15 K | 14.6

COC(C)=O [methyl ethanoate] + N#C[N-]C#N.OCCC[n+]1ccccc1
[2]
Conditions | activity coefficient
318.15 K | 3.28
328.15 K | 3.43
338.15 K | 3.56
348.15 K | 3.71
358.15 K | 3.84
368.15 K | 3.98

C=Cc1ccccc1 [styrene] + N#C[N-]C#N.OCCC[n+]1ccccc1
[2]
Conditions | activity coefficient
318.15 K | 6.93
328.15 K | 7.23
338.15 K | 7.51
348.15 K | 7.79
358.15 K | 8.06
368.15 K | 8.32

C=CCCCCCCCC [1-decene] + N#C[N-]C#N.OCCC[n+]1ccccc1
[2]
Conditions | activity coefficient
298.15 K | 1030
308.15 K | 954
318.15 K | 887
328.15 K | 829
338.15 K | 777
348.15 K | 731
358.15 K | 691

C#CCCCCC [1-heptyne] + N#C[N-]C#N.OCCC[n+]1ccccc1
[2]
Conditions | activity coefficient
298.15 K | 35.7
308.15 K | 36.5
318.15 K | 37.4
328.15 K | 38.2
338.15 K | 39
348.15 K | 39.7
358.15 K | 40.4

CC#N [acetonitrile] + N#C[N-]C#N.OCCC[n+]1ccccc1
[2]
Conditions | activity coefficient
318.15 K | 1.24
328.15 K | 1.29
338.15 K | 1.34
348.15 K | 1.38
358.15 K | 1.43
368.15 K | 1.48

CCCC=O [butanal] + N#C[N-]C#N.OCCC[n+]1ccccc1
[2]
Conditions | activity coefficient
318.15 K | 4.09
328.15 K | 4.21
338.15 K | 4.3
348.15 K | 4.39
358.15 K | 4.49
368.15 K | 4.57

CCOC(C)(C)C [2-ethoxy-2-methylpropane] + N#C[N-]C#N.OCCC[n+]1ccccc1
[2]
Conditions | activity coefficient
318.15 K | 85.6
328.15 K | 83.9
338.15 K | 82.4
348.15 K | 80.7
358.15 K | 79.1
368.15 K | 77.9

CCCCCCCCC [nonane] + N#C[N-]C#N.OCCC[n+]1ccccc1
[2]
Conditions | activity coefficient
298.15 K | 1450
308.15 K | 1300
318.15 K | 1180
328.15 K | 1080
338.15 K | 985
348.15 K | 906
358.15 K | 837

C1CCCC1 [cyclopentane] + N#C[N-]C#N.OCCC[n+]1ccccc1
[2]
Conditions | activity coefficient
298.15 K | 67
308.15 K | 63.5
318.15 K | 60.4
328.15 K | 57.4
338.15 K | 54.9
348.15 K | 52.7
358.15 K | 50.5

Cc1ccccc1 [toluene] + N#C[N-]C#N.OCCC[n+]1ccccc1
[2]
Conditions | activity coefficient
318.15 K | 8.44
328.15 K | 8.72
338.15 K | 9.03
348.15 K | 9.31
358.15 K | 9.58
368.15 K | 9.85

CCCCCCCCCC [decane] + N#C[N-]C#N.OCCC[n+]1ccccc1
[2]
Conditions | activity coefficient
298.15 K | 2100
308.15 K | 1900
318.15 K | 1730
328.15 K | 1580
338.15 K | 1450
348.15 K | 1340
358.15 K | 1240

CCCCCCC [heptane] + N#C[N-]C#N.OCCC[n+]1ccccc1
[2]
Conditions | activity coefficient
298.15 K | 582
308.15 K | 527
318.15 K | 481
328.15 K | 441
338.15 K | 407
348.15 K | 377
358.15 K | 351

CCCCCCCC [octane] + N#C[N-]C#N.OCCC[n+]1ccccc1
[2]
Conditions | activity coefficient
298.15 K | 930
308.15 K | 846
318.15 K | 772
328.15 K | 710
338.15 K | 654
348.15 K | 605
358.15 K | 564
